Assay results published in patent US20230381142A1, “ANTILEISHMANIAL COMPOUNDS, COMPOSITIONS AND USE THEREOF” (TRUSTEES OF BOSTON UNIVERSITY, priority 2022, published 2023).
In brackets after ≈: the same amount, converted by molar mass.

Assays:
[1] = Mouse microsomal stability; type: in vitro ADME; conditions: mouse liver microsomes
Description: Mouse microsomal stability assays were performed as described. Test compound (0.5 μM) was incubated with female CD1 mouse (Xenotech) liver microsomes and their action started with addition of excess NADPH (8 mg/mL 50 mM potassium phosphate buffer, pH 7.4). Aliquots (50 μL) of the incubation mixture were removed immediately (at time 0) and at 3, 6, 9, 15, and 30 min and mixed with acetonitrile (100 μL) to stop the reaction. Internal standard was added to all samples, the samples were centrifuged to sediment precipitated protein, and the plates were then sealed prior to UPLC-MS/MS analysis using a Quattro Premier XE (Waters Corporation, USA). XLfit (IDBS, UK) was used to calculate the exponential decay and consequently the rate constant (k) from the ratio of the peak area of test compound to internal standard at each time point. The rate of intrinsic clearance (Cli) of each test compound was then calculated using the equation Cli (mL/min/g liver)=k×V×microsomal protein yield, where V (mL/mg protein) is the incubation volume/mg protein added and microsomal protein yield is taken as 52.5 mg protein/g liver. Verapamil (0.5 μM) was used as a positive control to confirm acceptable assay performance.

[2] = Solubility in Fasted Simulated Intestinal Fluid (FaSSIF); type: physicochemical; conditions: thermodynamic from solid
Description: Solubility of compounds using ChemiLuminescent Nitrogen Detection (CLND) was measured as described. Solubility of compounds using Charged Aerosol Detection (CAD) was measured as described. Solubility of solid compounds in Fasted Simulated Intestinal Fluid (FaSSIF) was measured as described.

For `COc1ccc(N2C(=O)c3[nH]nc(CC(C)C)c3C2c2ccc(F)cc2)cc1` (racemic) [Compound 1, 4-(4-fluorophenyl)-3-isobutyl-5-(4-methoxyphenyl)-4,5-dihydropyrrolo[3,4-c]pyrazol-6(1H)-one], the half-life at 0.5 μM ([1]; female, CD1, pH 7.4, read-out: Microsomal stability (mouse) t1/2) was > 20 min, the “Microsomal stability (mouse) Clint” value [1] was “Clint < 3.4 mL/min/g” and the solubility [2] was 130 µg/mL (≈ 343 µM).
